Tests used:
[1] = target: hERG channels (Homo sapiens (Human), UniProt Q12809); assay: hERG Manual Patch Clamp Assay; assay type: cell-based; conditions: human, HEK 293 cells stably expressing hERG channels, pH 7.4, 1 uM, read-out: hERG EP % Inh @ 1 uM
[2] = target: hROMK (human Kir1.1) (Homo sapiens (Human), UniProt P48048); assay: cell-based; conditions: CHO T-Rex hROMK stable cell line; thallium flux; 10-point concentration response curve; read-out: Human ROMK Th Flux IC50
hROMK (human Kir1.1), sequence (P48048 whole entry): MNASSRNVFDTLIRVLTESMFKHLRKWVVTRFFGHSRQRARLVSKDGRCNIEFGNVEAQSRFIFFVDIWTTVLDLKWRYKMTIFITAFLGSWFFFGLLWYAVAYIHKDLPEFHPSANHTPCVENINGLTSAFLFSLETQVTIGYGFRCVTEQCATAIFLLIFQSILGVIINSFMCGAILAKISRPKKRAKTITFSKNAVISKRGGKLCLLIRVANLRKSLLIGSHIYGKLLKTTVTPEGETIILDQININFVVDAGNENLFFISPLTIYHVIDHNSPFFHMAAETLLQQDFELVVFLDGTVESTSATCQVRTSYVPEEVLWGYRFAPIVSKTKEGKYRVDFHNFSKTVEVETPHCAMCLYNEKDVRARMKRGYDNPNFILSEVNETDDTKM

hERG channels, sequence (Q12809 whole entry): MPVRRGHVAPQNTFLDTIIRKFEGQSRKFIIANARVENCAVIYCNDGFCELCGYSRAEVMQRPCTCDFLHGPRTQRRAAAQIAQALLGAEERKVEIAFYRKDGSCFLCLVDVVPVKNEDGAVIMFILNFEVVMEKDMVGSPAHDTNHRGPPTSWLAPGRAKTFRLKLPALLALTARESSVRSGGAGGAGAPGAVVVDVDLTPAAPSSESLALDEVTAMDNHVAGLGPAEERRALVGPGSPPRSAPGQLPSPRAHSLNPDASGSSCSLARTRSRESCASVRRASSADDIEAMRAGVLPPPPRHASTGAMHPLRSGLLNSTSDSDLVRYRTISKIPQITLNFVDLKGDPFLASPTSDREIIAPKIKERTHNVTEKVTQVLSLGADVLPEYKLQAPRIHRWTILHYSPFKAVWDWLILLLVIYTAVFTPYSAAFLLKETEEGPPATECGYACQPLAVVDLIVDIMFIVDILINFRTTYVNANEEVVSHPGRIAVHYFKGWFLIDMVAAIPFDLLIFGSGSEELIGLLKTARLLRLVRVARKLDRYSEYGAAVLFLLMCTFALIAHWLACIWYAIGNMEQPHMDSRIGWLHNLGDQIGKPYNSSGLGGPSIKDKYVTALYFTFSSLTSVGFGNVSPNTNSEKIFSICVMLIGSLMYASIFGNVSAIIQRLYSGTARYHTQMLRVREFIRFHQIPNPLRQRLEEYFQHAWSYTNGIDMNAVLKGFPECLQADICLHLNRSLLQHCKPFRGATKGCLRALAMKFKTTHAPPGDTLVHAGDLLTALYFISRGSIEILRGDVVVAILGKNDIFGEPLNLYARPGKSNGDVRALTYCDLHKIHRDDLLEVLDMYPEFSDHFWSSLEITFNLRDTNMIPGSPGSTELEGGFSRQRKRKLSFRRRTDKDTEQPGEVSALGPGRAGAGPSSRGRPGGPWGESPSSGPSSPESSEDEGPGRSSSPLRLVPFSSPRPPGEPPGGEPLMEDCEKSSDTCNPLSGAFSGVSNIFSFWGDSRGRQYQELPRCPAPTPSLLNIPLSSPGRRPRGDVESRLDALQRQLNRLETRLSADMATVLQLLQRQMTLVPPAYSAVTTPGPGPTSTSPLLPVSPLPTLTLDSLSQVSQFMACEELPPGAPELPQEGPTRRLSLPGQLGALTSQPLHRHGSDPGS

Row | Structure (SMILES) | inhibition at 1 µM [1] [%] | IC50 [2] [nM]
1 | Cc1cc(-n2cc(CN3CCN[C@H](c4ccc5c(c4C)COC5=O)C3)c(C)n2)ncc1C#N [Example 145-I, (R)-4-methyl-6-(3-methyl-4-((3-(4-methyl-1-oxo-1,3-dihydroisobenzofuran-5-yl)piperazin-1-yl)methyl)-1H-pyrazol-1-yl)nicotinonitrile] | 25 | 15
2 | Cc1cc(-n2ncc(CN3CCN[C@H](c4ccc5c(c4C)COC5=O)C3)c2C)ncc1C#N [Example 146-I, (R)-4-methyl-6-(5-methyl-4-((3-(4-methyl-1-oxo-1,3-dihydroisobenzofuran-5-yl)piperazin-1-yl)methyl)-1H-pyrazol-1-yl)nicotinonitrile] | 16 | 25
3 | COc1cc(-n2cnc(C)c2)ncc1CN1CCN[C@H](c2ccc3c(c2C)COC3=O)C1 [Example 149-I, (R)-5-(4-((4-methoxy-6-(4-methyl-1H-imidazol-1-yl)pyridin-3-yl)methyl)piperazin-2-yl)-4-methylisobenzofuran-1(3H)-one] | 7.6 | 52
4 | Cc1ncn(-c2ncc(CN3CCN[C@H](c4ccc5c(c4C)COC5=O)C3)cn2)c1C(F)F [Example 150-I, (R)-5-(4-((2-(5-(difluoromethyl)-4-methyl-1H-imidazol-1-yl)pyrimidin-5-yl)methyl)piperazin-2-yl)-4-methylisobenzofuran-1(3H)-one] | 14 | 100
5 | COc1cc(N2CC(CN3CCN[C@H](c4ccc5c(c4C)COC5=O)C3)CC2=O)ncc1C#N (stereo partly drawn) [Example 159-I, 4-methoxy-6-(4-(((R)-3-(4-methyl-1-oxo-1,3-dihydroisobenzofuran-5-yl)piperazin-1-yl)methyl)-2-oxopyrrolidin-1-yl)nicotinonitrile] | 21 | 16
6 | Cc1cc(-n2cnc(CN3CC[C@@H](O)[C@H](c4ccc5c(c4C)COC5=O)C3)c2)ncc1C#N [Example 163-I, 6-(4-(((3R,4R)-4-hydroxy-3-(4-methyl-1-oxo-1,3-dihydroisobenzofuran-5-yl)piperidin-1-yl)methyl)-1H-imidazol-1-yl)-4-methylnicotinonitrile] | 4.5 | 29
7 | Cc1c([C@@H]2CN(Cc3cnn(-c4cc(N5CCOC5=O)ccn4)c3)CCN2)ccc2c1COC2=O [Example 185-I, (R)-3-(2-(4-((3-(4-methyl-1-oxo-1,3-dihydroisobenzofuran-5-yl)piperazin-1-yl)methyl)-1H-pyrazol-1-yl)pyridin-4-yl)oxazolidin-2-one] | 9.6 | 100
8 | COc1cc(-n2cc(CCN3C[C@@H](c4ccc5c(c4C)COC5=O)N[C@@H](C)C3)cn2)ncc1C#N [Example 192-I, 4-methoxy-6-(4-(2-((3S,5R)-3-methyl-5-(4-methyl-1-oxo-1,3-dihydroisobenzofuran-5-yl)piperazin-1-yl)ethyl)-1H-pyrazol-1-yl)nicotinonitrile] | 46 | 16
9 | COc1ncnc(-n2cc(CN3C[C@@H](c4ccc5c(c4C)COC5=O)N[C@@H](C)C3)cn2)n1 [Example 194-I, 5-((2R,6S)-4-((1-(4-methoxy-1,3,5-triazin-2-yl)-1H-pyrazol-4-yl)methyl)-6-methylpiperazin-2-yl)-4-methylisobenzofuran-1(3H)-one] | 11 | 60
10 | Cc1c([C@@H]2CN(Cc3cnn(-c4cc(C#N)ccn4)c3)CCN2)ccc2c1COC2=O [Example 198-I, (R)-2-(4-((3-(4-methyl-1-oxo-1,3-dihydroisobenzofuran-5-yl)piperazin-1-yl)methyl)-1H-pyraozl-1-yl)isonicotinonitrile] | 0 | 83
11 | Cc1cc(-c2cc(CN3C[C@@H](c4ccc5c(c4C)COC5=O)N[C@@H](C)C3)on2)ncc1C#N [Example 214-I, 4-methyl-6-(5-(((3S,5R)-3-methyl-5-(4-methyl-1-oxo-1,3-dihydroisobenzofuran-5-yl)piperazin-1-yl)methyl)isoxazol-3-yl)nicotinonitrile] | 22 | 6.6
12 | Cc1c([C@@H]2CN(Cc3cnc(-n4cnc(C#N)c4)nc3)CCN2)ccc2c1COC2=O [Example 215-I] | 29 | 11
13 | Cc1c([C@@H]2CN(Cc3cnc(-n4cnc(C#N)n4)nc3)CCN2)ccc2c1COC2=O [Example 217-I, (R)-1-(5-((3-(4-methyl-1-oxo-1,3-dihydroisobenzofuran-5-yl)piperazin-1-yl)methyl)pyrimidin-2-yl)-1H-1,2,4-triazole-3-carbonitrile] | 16 | 24
14 | Cc1c([C@@H]2CN(Cc3cnc(-n4cc(C#N)c(C5CC5)n4)nc3)CCN2)ccc2c1COC2=O [Example 218-I, (R)-3-cyclopropyl-1-(5-((3-(4-methyl-1-oxo-1,3-dihydroisobenzofuran-5-yl)piperazin-1-yl)methyl)pyrimidin-2-yl)-1H-pyrazole-4-carbonitrile] | 39 | 33
15 | Cc1c([C@@H]2CN(Cc3ccc(-n4cc(C#N)c(OC(F)F)n4)nc3)CCN2)ccc2c1COC2=O [Example 219-I, (R)-3-(difluoromethoxy)-1-(5-((3-(4-methyl-1-oxo-1,3-dihydroisobenzofuran-5-yl)piperazin-1-yl)methyl)pyridin-2-yl)-1H-pyrazole-4-carbonitrile] | 75 | 21
16 | Cc1c([C@@H]2CN(Cc3cnn(-c4cc(N5CCOCC5)c(C#N)cn4)c3)CCN2)ccc2c1COC2=O [Example 220-I, (R)-6-(4-((3-(4-methyl-1-oxo-1,3-dihydroisobenzofuran-5-yl)piperazin-1-yl)methyl)-1H-pyrazol-1-yl)-4-morpholinonicotinonitrile] | 30 | 29
17 | Cc1cn(-c2ccc(CN3CCN[C@H](c4ccc5c(c4C)COC5=O)C3)cn2)nn1 [Example 222-I, (R)-4-methyl-5-(4-((6-(4-methyl-1H-1,2,3-triazol-1-yl)pyridin-3-yl)methyl)piperazin-2-yl)isobenzofuran-1(3H)-one] | 12 | 60
18 | COc1nn(-c2ccc(CN3CCN[C@H](c4ccc5c(c4C)COC5=O)C3)cn2)cc1C#N [Example 223-I, (R)-3-methoxy-1-(5-((3-(4-methyl-1-oxo-1,3-dihydroisobenzofuran-5-yl)piperazin-1-yl)methyl)pyridin-2-yl)-1H-pyrazole-4-carbonitrile] | 56 | 18
19 | Cc1c([C@@H]2CN(Cc3ccc(-n4cc(C#N)nn4)nc3)CCN2)ccc2c1COC2=O [Example 225-I, (R)-1-(5-((3-(4-methyl-1-oxo-1,3-dihydroisobenzofuran-5-yl)piperazin-1-yl)methyl)pyridin-2-yl)-1H-1,2,3-triazole-4-carbonitrile] | 39 | 19
20 | CCc1nn(-c2ccc(CN3CCN[C@H](c4ccc5c(c4C)COC5=O)C3)cn2)cc1C#N [Example 226-I, (R)-3-ethyl-1-(5-((3-(4-methyl-1-oxo-1,3-dihydroisobenzofuran-5-yl)piperazin-1-yl)methyl)pyridin-2-yl)-1H-pyrazole-4-carbonitrile] | 33 | 14

— US10501449B2 (priority 2018, dated 2019)
